Data taken from patent publication EP1978972B1, “USE OF ALKYLGLUCOSIDE ESTERS AS BETA-DEFENSIN INDUCERS” (Pierre Fabre Dermo-Cosmétique, priority 2006, dated 2007).

How the values were obtained:
hBD-3 [1] = assay: Immunohistochemistry of hBD-3 peptide in gingival explant, systemic treatment; type: cell-based, human; conditions: 30 µg/ml, 5 h, qualitative
Procedure: Les explants gingivaux humains de taille variable et petite sont rincés dix fois dans du PBS sans antibiotiques puis mis en culture sur une grille afin d'éviter leur immersion totale, posés côté derme.
(§1) Les échantillons inclus dans la résine Tissue Tek® sont coupés à froid (température de la chambre à -25°C et la température du porte-objet à - 28°C) à l'aide d'un cryostat (Leica CM 3050s, Nussloch). Les cryocoupes d'une épaisseur de 5 µm sont récupérées sur des lames porte-objet prétraitées, puis mises à sécher environ 2 h à température ambiante et stockées à -20°C pour une utilisation ultérieure. Avant de réaliser l'immuno-marquage, les coupes sont fixées à l'acétone à -20°C pendant 10 min, séchées et conservées à -20°C. Lors d'une première étape, les coupes sont hydratées puis incubées avec les anticorps primaires dirigés contre les peptides d'intérêt dilués dans du PBS. Les anticorps primaires utilisés sont les suivants : • Goat Anti-human BD-2 (500-P161G, Peprotech Inc) dilué au 1/50^e • Rabbit Anti-human defensin-3 (AB3478, Chemicon international) dilué au 1/1000^e • Rabbit Anti-human LL37 (G-075-06, Phoenix Pharmaceuticals Inc) dilué au 1/50^e
Pour révéler le complexe Antigène-Anticorps, le kit DAKO LSAB® (DAKO Corporation) est utilisé selon les recommandations du fournisseur. […]

hBD-3 [2] = assay: Immunohistochemistry of hBD-3 peptide in skin explants; type: cell-based, human; conditions: skin explant, qualitative
Procedure: as §1
Pour révéler le complexe Antigène-Anticorps, le kit DAKO LSAB® (DAKO Corporation) est utilisé selon les recommandations du fournisseur. La révélation est réalisée à l'aide d'un substrat de la péroxydase : la 3,3'diaminobenzidine (DAB) (DAKO Corporation). […]

Substance: laurate de butylglucoside [αβ-LBG brut]
- production du peptide hBD-3 dans les couches supérieures de l'épithélium gingival (hBD-3 [1]): induction de la production du peptide hBD-3
- production du peptide hBD-3 dans les couches supérieures de l'épiderme (hBD-3 [2]; systemic, 24 h): stimulation de la production
- production du peptide hBD-3 dans les couches supérieures de l'épiderme (hBD-3 [2]; topical): stimulation de la production
